Experimental findings from the NIST ThermoML archive (doi:10.1016/j.jct.2016.01.003) are described below.

SMILES strings stand for the structures. ± gives the expanded uncertainty stated by the source.

The conditions of data set [1]: Crystal.
A short description of data set [2]: Molar enthalpy of transition or fusion. To be noted: Crystal; DSC.

A word on the mass density: it is mass per unit of volume. Consider `O=C1c2cccc(Cl)c2C(=O)N1c1ccccc1` [3-chloro-N-phenylphthalimide], for which the mass density in data set [1] (298.15 K, 101.33 kPa, flotation method) turned out to be 1397 ± 2 kg/m3. Also, the Normal melting temperature in data set [1] (DTA) was 192.90 ± 1.1 °C. In data set [2], the “Molar enthalpy of transition or fusion” value turned out to be 6.96 ± 0.237 kcal/mol.
